Earlier results on seven compounds are cited in patent US20230173142A1, “BALLISTIC DELIVERY TO MULTILAYERED TISSUES AND RELATED PARTICLES, COMPOSITIONS, METHODS AND SYSTEMS” (CALIFORNIA INSTITUTE OF TECHNOLOGY, priority 2021, published 2023).

Entries after “also recorded” stand apart in the source; their conditions may differ. Read-outs that look alike come from different tables or passages of the source.

For data set [1], the system named is ear hole punch injury. Particulars: multiple peripheral subcutaneous injections of hydrogel over a 10-day period; Swiss Webster mice.
In data set [2] the test system is human cadaver corneas.
In data set [3] the test system is rabbit corneas. The conditions noted are these: rabbit corneas ex vivo.
Data set [4] relates to rabbit cornea. The conditions noted are these: rabbit cornea treated topically.
Data set [5] deals with T1, lysyl oxidase (LOX) (Homo sapiens, UniProt P28300).
T1 sequence (P28300 169-417): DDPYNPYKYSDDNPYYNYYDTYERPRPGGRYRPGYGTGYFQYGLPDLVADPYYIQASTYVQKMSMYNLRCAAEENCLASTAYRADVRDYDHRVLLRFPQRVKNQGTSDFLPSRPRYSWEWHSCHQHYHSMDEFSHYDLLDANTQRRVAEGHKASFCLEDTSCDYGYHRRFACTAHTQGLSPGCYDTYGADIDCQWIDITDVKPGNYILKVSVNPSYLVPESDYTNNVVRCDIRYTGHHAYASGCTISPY
The conditions noted are these: increasing [Cu^2+].

For data set [6], the system named is wound healing.

As for `O=C(O)c1c[nH]c2c(ccc3cccnc32)c1=O` [1,4-DPCA, 1,4-dihydrophenonthrolin-4-one-3-carboxylic acid], the “wound healing after ear hole punch injury” value in data set [1] is on record as “regenerative wound healing”. In the case of `[Cu+2]` [Copper], the biomechanical strength result in data set [2] and in data set [3] was “increase biomechanical strength” each time. Also, the “crosslinking as measured by LNL” value in data set [4] is “increase crosslinking”. Further, in data set [5], the LOX activity entry was “restore LOX activity”. Regarding “EGF: growth factor loaded in carrier material”, the Effect entry in data set [6] (Material: Nanoparticle) is “Accelerated migration of inflammatory cells during the inflammation; also recorded: Enhanced wound closure, collagen deposition, angiogenesis, and”. With SDF-1: stromal cell-derived factor-1, the Effect result in data set [6] (Material: Hydrogel) was “Accelerated wound healing and increased vascularization”. For the compound VEGF, the Effect result in data set [6] (Material: Hydrogel) is on record as “Enhanced wound healing, granulation, collagen deposition,”; in data set [6] (Material: Lyotropic liquid crystal), “Enhanced vascularization”. As for “aFGF: growth factor/cytokine loaded in hydrogel”, the Effect entry in data set [6] (Material: Hydrogel) is “Accelerated cell proliferation, neo-vascularization, and wound healing”. For “bFGF: growth factor/cytokine loaded in carrier material”, the Effect result in data set [6] (Material: Concentrate) is reported as “Enhanced wound closure, angiogenesis, collagen deposition,”; in data set [6] (Material: Hydrogel), “Enhanced wound closure, collagen deposition, vascularization,; also recorded: Enhanced wound closure, organized collageno depostion,; also recorded: Enhanced the formation of granulation tissue, increased angiogenesis,”.
